Reference: patent publication US12258360B2, “Compositions and methods for treatment of anticancer-drug resistant cancers” (THE GEORGE WASHINGTON UNIVERSITY, priority 2020, dated 2025)

Legend:
IGROV1 cells = experiment: flow cytometry (FACS) of propidium-iodide stained IGROV1 cells; type: cell-based, human; conditions: 1 μM
[1] = test system: recruitment of CtIP to DSB sites in IGROV1 cells; experiment: immunofluorescence assay of CtIP co-localization with γH2AX after micro-irradiation; type: cell-based, human; conditions: 1 μM, 30 minutes post irradiation
Procedure: H2AX (H2A histone family member X) becomes phosphorylated on serine 139 (wherein the phosphorylated form is then called […]) as a reaction on DNA double-strand breaks (DSB). And-1 regulates DSB end resection by establishing a condition or acting as a platform for recruitment of the tumor suppressor protein CtIP—a CtBP (carboxy-terminal binding protein)-interacting protein, to the DSB sites. […] In brief, IGROV1 cells were cultured on coverslips coated with 0.01% of poly-L-lysine. After treatment, the cells were then washed once with PBS, then pre-extracted with 0.5% Triton X-100 extraction buffer (10 mM PIPES pH 7.0, 100 mM NaCl, 3 mM MgCl2 and 300 mM sucrose) on ice for 5 minutes. After washing with PBS, cells were fixed with 4% paraformaldehyde in PBS for 15 minutes. Cells were then washed and incubated for 10 minutes in blocking buffer (PBS containing 3% BSA and 0.02% Tween-20) and subsequently incubated for 1 hour with a primary antibody at room temperature. Cells were washed three times with PBS-T (PBS containing 0.02% Tween-20) and then incubated with a secondary antibody (e.g., rabbit Alexa Fluor-594 and mouse Alexa Fluor-488). After washing with PBS-T, cells were mounted with Fluoromount G containing DAPI (4′,6-diamidino-2-phenylindole—a fluorescent stain that binds strongly to adenine-thymine-rich regions in DNA). Slides were then imaged using a Nikon Eclipse 80i microscope. […]

And-1 [2] = biological target: T1, And-1 (Homo sapiens, UniProt O75717); experiment: immunoblot analysis of And-1 expression in IGROV1 cells; type: cell-based; design: endogenous in cells; host or cells: IGROV1 CR; conditions: immunoblot, read-out: IC50 for inhibition of And-1 expression
T1 sequence (O75717 1-1129): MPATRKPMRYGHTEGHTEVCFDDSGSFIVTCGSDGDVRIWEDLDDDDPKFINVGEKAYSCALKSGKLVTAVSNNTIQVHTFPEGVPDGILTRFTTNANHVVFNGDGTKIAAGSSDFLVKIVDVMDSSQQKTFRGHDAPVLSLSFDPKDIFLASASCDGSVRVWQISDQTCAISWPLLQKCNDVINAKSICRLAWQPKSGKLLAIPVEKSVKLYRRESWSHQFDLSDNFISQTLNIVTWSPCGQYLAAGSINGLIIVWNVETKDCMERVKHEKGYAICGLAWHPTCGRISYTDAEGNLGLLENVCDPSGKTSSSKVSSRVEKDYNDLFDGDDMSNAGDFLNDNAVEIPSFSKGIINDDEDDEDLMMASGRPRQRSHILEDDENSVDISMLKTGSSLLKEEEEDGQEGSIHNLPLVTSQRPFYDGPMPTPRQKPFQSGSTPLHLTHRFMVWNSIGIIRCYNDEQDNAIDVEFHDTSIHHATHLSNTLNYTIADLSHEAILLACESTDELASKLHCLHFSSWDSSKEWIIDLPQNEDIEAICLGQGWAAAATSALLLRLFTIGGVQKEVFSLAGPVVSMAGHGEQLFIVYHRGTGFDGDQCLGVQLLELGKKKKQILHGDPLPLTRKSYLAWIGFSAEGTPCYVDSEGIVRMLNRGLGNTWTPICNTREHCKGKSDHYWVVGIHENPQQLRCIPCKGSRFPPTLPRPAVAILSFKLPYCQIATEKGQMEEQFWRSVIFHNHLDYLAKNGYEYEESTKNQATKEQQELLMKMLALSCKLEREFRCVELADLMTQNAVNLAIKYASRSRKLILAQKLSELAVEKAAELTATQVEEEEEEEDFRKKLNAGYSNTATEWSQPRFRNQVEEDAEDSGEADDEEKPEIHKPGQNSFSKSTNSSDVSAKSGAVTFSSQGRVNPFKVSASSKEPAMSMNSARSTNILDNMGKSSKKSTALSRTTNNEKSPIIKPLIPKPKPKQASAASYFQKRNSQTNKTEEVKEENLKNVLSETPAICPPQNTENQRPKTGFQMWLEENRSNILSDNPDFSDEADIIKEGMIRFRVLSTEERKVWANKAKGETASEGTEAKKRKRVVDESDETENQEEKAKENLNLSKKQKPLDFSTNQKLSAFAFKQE
Procedure: The high IC50 of resveratrol compromises its potential clinical application; therefore, resveratrol was used as a lead compound to screen 12 analogs of resveratrol for potent compounds that can inhibit And-1 (FIG. 14). […] To perform immunoblot analyses, cells were first treated with increasing concentrations of the 12 analogs. After treatment, the cells were harvested and then lysed with RIPA buffer protease inhibitor and phosphatase inhibitor cocktail. Protein concentration was determined by the BCA protein assay. Equal amounts of whole cell lysates were separated on sodium dodecyl sulfate polyacrylamide gel electrophoresis (SDS-PAGE) and transferred onto nitrocellulose membranes. Membranes were then incubated in blocking solution (5% non-fat milk in 20 mM TRIS-HCl, 150 mM NaCl, 0.1% Tween-20) (TBST), followed by incubation with the indicated antibodies at 4° C. overnight. The membranes were then washed in TBST and incubated with HRP-conjugated secondary antibodies for 1 hour at room temperature (21° C.±2° C.). Antibody detection was performed with an enhanced chemiluminescence reaction.

IGROV1 CR xenograft = type: in vivo, mice
Procedure: To evaluate the potency of And-1 inhibitors in vivo, IGROV1 or MCF7 cells were subcutaneously implanted into nude mice to form ovarian or breast tumors, respectively. In brief, 5-6 week-old female BALB/c athymic nude mice (CByJ.Cg-Foxn1nu/J, weighting 20-25 grams) were inoculated subcutaneously by injecting the OC cells, cisplatin resistant OC cells or breast cancer cells suspended in 100 μl ice-cold Matrigel/PBS (1:1, V:V; 5×10^6/mouse) into the dorsal flank of each mouse. When the average tumor volume reached 100-150 mm^3, the mice were randomized into subsequent experiment groups. For tumors treated with CH3 only, CH3 was given at 0 mg/kg, 20 mg/kg and 40 mg/kg via intraperitoneal injection twice a week for three weeks. […] The relative tumor volumes were calculated using the formula: a×(b^2)/2, for which a and b represented the longest and shortest diameters, respectively. During the drug treatment, the tumor volume and body weight were measured. Tumor samples were collected 4 days after final administration of the drug.
To assess the efficacy of combination therapy with And-1 inhibitor and cisplatin in vivo, an IGROV1 CR xenograft was treated with vehicle, And-1 inhibitors, cisplatin or combination of cisplatin and And-1 inhibitor via intraperitoneal injection.

SREBP target gene SCD-1 = experiment: RT-PCR detection of SCD-1 gene expression in AN3CA cells; type: cell-based, human; conditions: 10 μM; for Relative mRNA expression of SCD-1: 48 h, DMSO = 1
Procedure: • 1. Experimental reagent • 2. The experimental steps are as follows: • 2.1 AN3CA cell recovery and culture (10% serum 1% double antibody in MEM medium); • 2.2 passages (passage at a ratio of 1:2); • 2.3 Place 6 well plates when the cell status is good, 5×10^5Well, culture overnight; • 2.4 adding medicine: diluting the final concentration of the drug with a culture medium to 10 μM, 2 mL/well; • 2.5 adding medicine for 48 h, and then extracting RNA; • 2.5.1 removing the culture medium, adding 0.5 mL/hole Trizol to lyse the cells, repeatedly blowing and beating the cells by a pipette after 5 min, completely lysing the cells, transferring the cells into a 1.5 mL EP tube without RNase, and standing the tube for 5 min; • 2.5.2 adding 200 µl chloroform, shaking rapidly, mixing, standing for 10 min 12000 rpm/15 min; • 2.5.3 carefully taking out the supernatant, transferring the supernatant into an EP tube, adding isopropanol with the same volume, reversing, uniformly mixing, standing for 10 min, and centrifuging at 12000 rpm/10 min; • 2.5.4 removing the supernatant, adding 1 mL of 75% ethanol for washing, centrifuging at 8000 rpm/5 min once, carefully removing the supernatant, standing at room temperature for 10 min to volatilize the ethanol, and dissolving the precipitate with 40 μL of DEPC treated water when the precipitate becomes transparent; • 2.5.5 RNA concentration was measured and DEPC-treated water was diluted to 100 ng/μL • 2.6 reverse transcription: Kit Takara (PrimeScript RT reagent Kit (Perfect Real Time)

AN3CA cells [3] = experiment: cell clonogenic assay in AN3CA cells; type: cell-based, human
Procedure: • 1. The experimental steps are as follows: • 1.1 AN3CA cell recovery and culture (MEM medium, 10% serum, 1% double antibody); • 1.2 Passages (1:2 ratio passage); • 1.3 When the cell state is good, laying 6-hole plates, 500/hole, and culturing overnight; • 1.4 Adding medicine: […], 2 mL/well; • 1.5 Adding medicine in a liquid changing mode every two days; • 1.6 Frequent observation. The culture was terminated when macroscopic colonies appeared in the culture dish. The supernatant was discarded, carefully rinsed 2 times with PBS and air dried. Cells were fixed with 5 mL of 4% paraformaldehyde for 30 minutes or with methanol for 10 minutes. And (3) removing the stationary liquid after air drying, adding a proper amount of GIMSA, dyeing for 10-30 minutes by using the dyeing liquid, then slowly washing away the dyeing liquid by using running water, and air drying. • 1.7 Plates were inverted and overlaid with a piece of transparent film with grid and clones were counted either directly with the naked eye or with a microscope (low power) for clones larger than 10 cells. And finally calculating the clone formation rate. • 1.8 Percent colony formation rate (number of clones/number of inoculated cells)×100%

AN3CA cells [4] = experiment: cell proliferation assay (MTS) in AN3CA cells; type: cell-based, human; conditions: 48 h; for inhibition of AN3CA cell proliferation (in words): 10 μM
Procedure: • 1. The experimental steps are as follows: • 1.1 AN3CA cell recovery and culture (MEM medium, 10% serum, 1% double antibody); • 1.2 Passages (passage at a ratio of 1:2); • 1.3 Place 96-well plate when the cell status is good, 1×10^4 Well, culture overnight; • culture medium with 10% defatted serum • 1.4 Adding medicine: diluting the final concentration of the drug with a culture medium to 10 μM, and treating for 48 h at 100 μL/well; • culture medium with 10% defatted serum • 1.5 Addition of 2 μL MTS/well, care taken to prevent bubble formation, 490 nm data after 1-4 h

And-1 [5] = biological target: T1, And-1; experiment: inhibition of And-1 in IGROV1 CR cells; type: cell-based; design: endogenous in cells; host or cells: IGROV1 CR; conditions: inhibition of And-1, IGROV1 CR cells
And-1 [6] = biological target: T1, And-1; experiment: inhibition of And-1 in OV90 CR cells; type: cell-based; design: endogenous in cells; conditions: inhibition of And-1, OV90 CR cells
And-1 [7] = biological target: T1, And-1; experiment: cellular thermal shift assay; type: binding; design: endogenous in cells; host or cells: IGROV1 CR; conditions: cells incubated 8 hours, compared to DMSO
Procedure: To explore whether And-1 inhibitors directly bind to And-1, cellular thermal shift assays were performed in which a small molecule binds to a protein resulting in thermal stabilization of the protein. Briefly, cells were incubated with MG132 (10 μM), DHS, CH3, CH10 or DMSO for 8 hours. After washing with ice-cold PBS (suppled with Protease Inhibitor Cocktail), cells were aliquoted into PCR tubes (100 μL each) and then incubated at different temperatures (from 25° C. to 71° C.) for 4 minutes. After the cells were frozen and thawed twice using liquid nitrogen, proteins were isolated from the cells after centrifugation and incubated at 70° C. for 10 minutes for analysis by western blotting.

Q: Which “percentage of cells in the S-phase” value (IGROV1 cells) does the source give for `CC(=O)O.Cc1c(-c2ccc(O)cc2)n(Cc2ccc(OCCN3CCCCCC3)cc2)c2ccc(O)cc12` [BZA, reference compound] here?
A: reduced the percentage of cells in the S-phase

Q: What about the “recruitment of CtIP to DSB sites induced by micro-irradiation” value [1] of the same compound?
A: significantly decreased

Q: And the IC50 (And-1 [2])?
A: 0.32 µM

Q: And the “And-1 expression in tumor samples (IHC)” value (IGROV1 CR xenograft; IGROV1 CR xenograft)?
A: suppressed expression of And-1

Q: What about the “tumor growth, combination with cisplatin vs cisplatin alone” value (IGROV1 CR xenograft; IGROV1 CR xenograft, cisplatin 8 mg/kg, CH3 20 mg/kg, BZA 2 mg/kg intraperitoneally, three weeks) of the same compound?
A: excellent synergy in reducing tumor growth

Q: And the “systemic toxicity of combination with cisplatin (body weight, H&E staining)” value (IGROV1 CR xenograft; mouse, in vivo)?
A: no obvious systemic toxicity or side effect

Q: Which results are given for `OB1OCc2cc(/C=C/c3cccc(C(F)(F)F)c3)ccc21` [Compound II, (E)-5-(3-(trifluoromethyl)styryl)benzo[c][1,2]oxaborol-1(3H)-ol]?
A: activity of reducing SCD-1 gene expression (in words) (SREBP target gene SCD-1; AN3CA cells): better than those of BF-175; Relative mRNA expression of SCD-1 (SREBP target gene SCD-1; AN3CA cells): 0.39; inhibitory effect on Srebp (SREBP target gene SCD-1; human endometrial cancer AN3CA cells): high inhibitory effect; inhibition of clone formation rate (AN3CA cells [3]; 10 μM): completely inhibit; inhibition of AN3CA cell proliferation (in words) (AN3CA cells [4]): superior to BF 175; inhibition at 10 µM (AN3CA cells [4]; Homo sapiens, AN3-CA, MTS): 80%; IC50 (And-1 [5]): 20.4 µM; IC50 (And-1 [6]): 21.1 µM

Q: What does the source list for `Oc1ccc(/C=C/c2ccc(O)cc2)cc1` [DHS, reference compound]?
A: thermal stabilization of And-1 protein at higher temperatures (And-1 [7]): stabilized; IC50 (And-1 [2]): 8.92 µM

Q: Which results are given for `OB1OCc2cc(/C=C/c3cc(Cl)cc(Cl)c3)ccc21` [XIV, (E)-5-(3,5-dichlorostyryl)benzo[c][1,2]oxaborol-1(3H)-ol]?
A: Relative mRNA expression of SCD-1 (SREBP target gene SCD-1; AN3CA cells): 0.46; inhibition of clonogenic rate (AN3CA cells [3]; 5 μM): comparable to that of 10 μM BF 175; inhibition of AN3CA cell proliferation (in words) (AN3CA cells [4]): different degrees of inhibition; IC50 (And-1 [5]): 25.7 µM; IC50 (And-1 [6]): 29.9 µM
